What was measured:
[1] = molecular target: T1, ATP-dependent translocase ABCB1 (Homo sapiens, UniProt P08183); experiment: TP_TRANSPORTER: transepithelial transport (basal to apical) in MDR1-expressing LLC-PK1 cells; format: functional, cell-based; conditions: pig
[2] = molecular target: T1, ATP-dependent translocase ABCB1; experiment: TP_TRANSPORTER: inhibition of Digoxin transepithelial transport (basal to apical) (Digoxin: 5 uM) in Caco-2 cells; format: functional, cell-based

T1 sequence (P08183 whole entry): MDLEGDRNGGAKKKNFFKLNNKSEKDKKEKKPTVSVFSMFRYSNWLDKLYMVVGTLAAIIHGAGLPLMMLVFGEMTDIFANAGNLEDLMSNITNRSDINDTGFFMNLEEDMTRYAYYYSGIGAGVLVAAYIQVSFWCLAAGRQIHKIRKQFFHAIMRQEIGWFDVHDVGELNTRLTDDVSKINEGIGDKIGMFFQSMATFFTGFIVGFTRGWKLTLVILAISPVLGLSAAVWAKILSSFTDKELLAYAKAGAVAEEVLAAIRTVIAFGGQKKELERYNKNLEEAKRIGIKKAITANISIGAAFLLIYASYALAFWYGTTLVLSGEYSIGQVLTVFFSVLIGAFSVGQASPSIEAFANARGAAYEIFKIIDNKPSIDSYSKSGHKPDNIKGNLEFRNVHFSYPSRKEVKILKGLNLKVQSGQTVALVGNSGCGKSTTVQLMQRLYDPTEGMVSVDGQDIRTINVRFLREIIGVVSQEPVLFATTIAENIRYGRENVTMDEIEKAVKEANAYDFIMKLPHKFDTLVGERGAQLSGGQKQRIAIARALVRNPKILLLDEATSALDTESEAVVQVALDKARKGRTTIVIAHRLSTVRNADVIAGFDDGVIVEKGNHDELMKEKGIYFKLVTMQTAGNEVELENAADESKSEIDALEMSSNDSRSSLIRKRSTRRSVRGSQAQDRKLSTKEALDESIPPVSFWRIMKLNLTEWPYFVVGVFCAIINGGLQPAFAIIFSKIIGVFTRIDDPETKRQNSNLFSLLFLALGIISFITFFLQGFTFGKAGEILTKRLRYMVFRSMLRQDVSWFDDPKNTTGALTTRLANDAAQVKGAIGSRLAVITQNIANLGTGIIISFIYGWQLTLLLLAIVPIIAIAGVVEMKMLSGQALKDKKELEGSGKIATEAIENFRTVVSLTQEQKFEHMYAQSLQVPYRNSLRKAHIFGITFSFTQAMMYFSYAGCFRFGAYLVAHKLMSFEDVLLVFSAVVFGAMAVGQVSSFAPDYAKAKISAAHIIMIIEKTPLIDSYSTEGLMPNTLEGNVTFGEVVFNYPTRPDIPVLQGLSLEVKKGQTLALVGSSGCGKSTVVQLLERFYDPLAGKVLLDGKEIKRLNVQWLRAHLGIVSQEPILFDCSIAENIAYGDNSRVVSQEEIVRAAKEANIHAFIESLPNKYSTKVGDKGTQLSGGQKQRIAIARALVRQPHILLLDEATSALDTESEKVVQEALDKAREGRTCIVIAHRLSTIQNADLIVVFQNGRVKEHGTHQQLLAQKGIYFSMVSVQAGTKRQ

| SMILES | Activity [1] | IC50 [2] [µM] |
| --- | --- | --- |
| Cc1c(OCC(F)(F)F)ccnc1C[S+]([O-])c1nc2ccccc2[nH]1 (stereo unspecified) [LANSOPRAZOLE] | substrate [+] | 62.8 |
| COc1ccnc(C[S+]([O-])c2nc3ccc(OC(F)F)cc3[nH]2)c1OC (stereo unspecified) [PANTOPRAZOLE] | substrate [+] | 17.9 |
| COc1ccc2[nH]c([S+]([O-])Cc3ncc(C)c(OC)c3C)nc2c1 (stereo unspecified) [OMEPRAZOLE] | substrate [+] | 17.7 |
